Measured values taken from ChEMBL document CHEMBL3885881, “DrugMatrix”.

Species: Rattus norvegicus
Experiment: DrugMatrix - Regimen: Daily Repeat
Assay type: toxicity, organism-based, Sprague-Dawley
Design: regimen Daily Repeat, gender Male, age 6-8 weeks
Conditions: in vivo, po, route oral GAVAGE, vehicle 100 % WATER; for TOTAL PROTEIN / ALANINE AMINOTRANSFERASE / ALBUMIN / ALKALINE PHOSPHATASE / ASPARTATE AMINOTRANSFERASE / BLOOD UREA NITROGEN / CHLORIDE / CHOLESTEROL / CREATINE PHOSPHOKINASE / CREATININE / GLUCOSE / PHOSPHORUS / POTASSIUM / SODIUM / TOTAL BILIRUBIN: tissue Plasma; for BASOPHIL / EOSINOPHIL / ERYTHROCYTE COUNT / HEMATOCRIT / HEMOGLOBIN / LEUKOCYTE COUNT / LYMPHOCYTE / MEAN CORPUSCULAR HEMOGLOBIN / MEAN CORPUSCULAR HEMOGLOBIN CONCENTRATION / MEAN CORPUSCULAR VOLUME / MONOCYTE / NEUTROPHIL / PLATELET COUNT: tissue Blood
[1] = 53.5 mg/kg, 120 h, dose level Low, time 5 day
[2] = 535 mg/kg, 72 h, dose level High, time 3 day
[3] = 535 mg/kg, 120 h, dose level High, time 5 day

CN1C(=O)OC(C)(C)C1=O [TRIMETHADIONE]
TOTAL PROTEIN (53.5 mg/kg, 72 h, dose level Low, time 3 day): 6.65 G/DL | BASOPHIL [1]: 0% | EOSINOPHIL [1]: 0% | ERYTHROCYTE COUNT [1]: 6.06 x10E6/uL | HEMATOCRIT [1]: 36.17% | HEMOGLOBIN [1]: 14.4 G/DL | LEUKOCYTE COUNT [1]: 18.23 x10E3/uL | LYMPHOCYTE [1]: 83.33% | MEAN CORPUSCULAR HEMOGLOBIN [1]: 23.8 pg | MEAN CORPUSCULAR HEMOGLOBIN CONCENTRATION [1]: 39.83 G/DL | MEAN CORPUSCULAR VOLUME [1]: 59.7 fL | MONOCYTE [1]: 2.33% | NEUTROPHIL [1]: 14.33% | PLATELET COUNT [1]: 1288 x10E3/uL | ALANINE AMINOTRANSFERASE [1]: 36.67 u/L | ALBUMIN [1]: 3.57 G/DL | ALKALINE PHOSPHATASE [1]: 314 u/L | ASPARTATE AMINOTRANSFERASE [1]: 59 u/L | BLOOD UREA NITROGEN [1]: 12 mg/dL | CHLORIDE [1]: 102.33 MEQ/L | CHOLESTEROL [1]: 70.67 mg/dL | CREATINE PHOSPHOKINASE [1]: 109.33 u/L | CREATININE [1]: 0.6 mg/dL | GLUCOSE [1]: 190.67 mg/dL | PHOSPHORUS [1]: 13.13 mg/dL | POTASSIUM [1]: 6.6 MEQ/L | SODIUM [1]: 151.33 MEQ/L | TOTAL BILIRUBIN [1]: 0.3 mg/dL | TOTAL PROTEIN [1]: 6.5 G/DL | BASOPHIL [2]: 0% | EOSINOPHIL [2]: 0% | ERYTHROCYTE COUNT [2]: 6.23 x10E6/uL | HEMATOCRIT [2]: 37.4% | HEMOGLOBIN [2]: 14.63 G/DL | LEUKOCYTE COUNT [2]: 13.2 x10E3/uL | LYMPHOCYTE [2]: 82.67% | MEAN CORPUSCULAR HEMOGLOBIN [2]: 23.5 pg | MEAN CORPUSCULAR HEMOGLOBIN CONCENTRATION [2]: 39.13 G/DL | MEAN CORPUSCULAR VOLUME [2]: 60 fL | MONOCYTE [2]: 5.67% | NEUTROPHIL [2]: 11.67% | PLATELET COUNT [2]: 1178.33 x10E3/uL | ALANINE AMINOTRANSFERASE [2]: 42.67 u/L | ALBUMIN [2]: 3.63 G/DL | ALKALINE PHOSPHATASE [2]: 285 u/L | ASPARTATE AMINOTRANSFERASE [2]: 71 u/L | BLOOD UREA NITROGEN [2]: 12.67 mg/dL | CHLORIDE [2]: 98.33 MEQ/L | CHOLESTEROL [2]: 72 mg/dL | CREATINE PHOSPHOKINASE [2]: 136.33 u/L | CREATININE [2]: 0.57 mg/dL | GLUCOSE [2]: 181.33 mg/dL | PHOSPHORUS [2]: 12.93 mg/dL | POTASSIUM [2]: 6.83 MEQ/L | SODIUM [2]: 152 MEQ/L | TOTAL BILIRUBIN [2]: 0.27 mg/dL | BASOPHIL [3]: 0% | EOSINOPHIL [3]: 0.33% | ERYTHROCYTE COUNT [3]: 5.77 x10E6/uL | HEMATOCRIT [3]: 33.97% | HEMOGLOBIN [3]: 13.13 G/DL | LEUKOCYTE COUNT [3]: 10.67 x10E3/uL | LYMPHOCYTE [3]: 78.67% | MEAN CORPUSCULAR HEMOGLOBIN [3]: 22.8 pg | MEAN CORPUSCULAR HEMOGLOBIN CONCENTRATION [3]: 38.67 G/DL | MEAN CORPUSCULAR VOLUME [3]: 58.97 fL | MONOCYTE [3]: 2.67% | NEUTROPHIL [3]: 18.33% | PLATELET COUNT [3]: 1123.33 x10E3/uL | ALANINE AMINOTRANSFERASE [3]: 42 u/L | ALBUMIN [3]: 3.67 G/DL | ALKALINE PHOSPHATASE [3]: 272.33 u/L | ASPARTATE AMINOTRANSFERASE [3]: 78.33 u/L | BLOOD UREA NITROGEN [3]: 14.67 mg/dL | CHLORIDE [3]: 99.33 MEQ/L | CHOLESTEROL [3]: 74.33 mg/dL | CREATINE PHOSPHOKINASE [3]: 143.67 u/L | CREATININE [3]: 0.57 mg/dL | GLUCOSE [3]: 180.33 mg/dL | PHOSPHORUS [3]: 13.1 mg/dL | POTASSIUM [3]: 6.6 MEQ/L | SODIUM [3]: 153.33 MEQ/L | TOTAL BILIRUBIN [3]: 0.27 mg/dL | TOTAL PROTEIN [3]: 6.53 G/DL
